Patent US20240093034A1, “FLUORESCENT DYES” (EXOPHARM LIMITED, priority 2020, published 2024)

Legend:
[1] = tested on: platelet-derived EVs; experiment: Labelling of extracellular vesicles with dyes (Superose 6 HPLC, UV and FLD detection); conditions: EV + 2 μM dye
Procedure: Labelling of extracellular vesicles (EVs) with dyes 1-10 was performed according to the following procedure. 20 μL of platelet-derived EVs were incubated in HPLC vials with or without each dye at a final concentration of 2 μM dye, the dye stock solution being made up in water. For negative controls, an equivalent volume of the diluent solution was added to the EV solution. The sample was mixed gently. Each sample was subsequently incubated for 1 hr at 37° C. Samples were transferred and stored in the autosampler set at 4° C. A batch table was setup that injected unlabelled EVs prior to labelled EVs. A blank injection was run after each labelled EV experiment to ensure there was no carryover. 15 μL of each sample was injected onto a Superose 6 Increase column (3.2/300) from Cytiva. The flow rate was set at 0.15 mL min* The Shimadzu BioHPLC was run in isocratic mode with Buffer A: 1× PBS (phosphate-buffered saline), pH 7.4, 100 nm filtered. The column oven temperature was set at 30° C. Total run duration was 30 min. Data was collected using two detectors. The PDA (UV detector) was set to scan from 190-800 nm and a channel of the FLD (fluorescence detector) was set at 562 nm/583 nm (Ex/Em). Titration experiments were conducted to confirm that excess dye was removed. The areas of the void peaks from the 214 nm absorption and the 583 nm emission were calculated by the LabSolutions software using the manual integration function. To normalise the fluorescent signal, the total fluorescent area was divided by the UV 214 nm area. This ratio can be used to rank each dye, with higher ratios indicative of greater incorporation.

[2] = tested on: PBMCs; experiment: Uptake of dye 2-labelled MSC-EVs by immune cells of the mdMLR assay; format: cell-based, human; conditions: 5 days with dye 2-labelled MSC-EVs
Procedure: The MSC-EV preparations were stained with dye 2 of the invention according to the following protocol. Dye 2 was provided as a lyophilised powder. 1 mg of dye 2 was resuspended with 1 mL buffer to a final concentration of […]. Like CFDA-SE, the dye 2 solution was centrifuged for 10 min at 17,000 x g to reduce background noise to a minimum. Briefly, for the EV-labelling 25 μL of the MSC-EV preparations were incubated with 25 μL of a prepared, centrifuged dye 2 solution (0.2 μM) for 1 hour at 37° C. The sample was diluted 1:20 to a final volume of 1 mL prior to analysis. For EV uptake experiments dye 2-labelled MSC-EV preparations were cleared from EV unbound dye 2 by ultrafiltration. Briefly, after labelling with dye 2, the MSC-EVs were washed by via centrifugation at 12,000xg through Vivaspin 500 filters (Sartorius) for 10 min. The retentate was collected as labelled EV sample.
The immunomodulatory potential of dye 2-labelled and non-labelled MSC-EV preparations were compared in a multi-donor mixed lymphocyte reaction assay (MLR) as described previously (Madel et al., 2020, Independent human mesenchymal stromal cell-derived extracellular vesicle preparations differentially affect symptoms in an advanced murine Graft-versus-Host-Disease model. bioRxiv, 2020.2012.2021.423658). Briefly, Ficoll prepared peripheral blood mononuclear cells (PBMC) of 12 healthy donors were mixed in equal proportions, aliquoted and stored in the vapour phase of liquid nitrogen until usage. After thawing 600,000 cells were seeded per well of a 96-well U-bottom shape plates (Corning, Kaiserslautern, Germany) and cultured in 10% human AB serum (produced in house) and 100 U/mL penicillin and 100 µg/mL streptomycin (Thermo Fisher Scientific) supplemented RPMI 1640 medium (Thermo Fisher Scientific) in a final volume of 200 μL per well, either in the presence or absence of MSC-EV preparations to be tested. After 5 days, cells were harvested, stained with a collection of different fluorescent labelled antibodies (CD4-BV785; BioLegend, San Diego, CA, USA; CD25-PE-Cy5.5; BD Bioscience; and CD54-AF700; EXBIO) and analysed on a Cytoflex flow cytometer (Software CytExpert 2.3, Beckman-Coulter). Activated and non-activated CD4^+ T cells were discriminated by means of their CD25 and CD54 expression, respectively. Typically, 5 μL of MSC-EV preparations to be tested were applied into respective wells. The following antibodies were used to further discriminate subpopulations: CD8-BV650 (BioLegend), CD14-PO (EXBIO), CD19-ECD (Beckman Coulter) and CD56-APC (BioLegend). The evaluation of the data was carried out with the Kaluza software (Version 2.1, Beckman Coulter).
To investigate whether EV labelling with dye 2 of the invention allows the identification of EV-uptaking cells, the labelled EV uptake of the different immune cells within the mdMLR assay was examined. To this end, a pool of PBMCs derived from 12 healthy donors were cultured for 5 days in the presence of dye 2-labelled MSC-EVs (n=3) that had been cleared from excess dye 2 by ultrafiltration. Thereafter, cells were harvested, antibody labelled and analysed by flow cytometry. The content of dye 2-labelled cells within different PBMC subtypes was determined. […] In contrast, only proportions of the different lymphocytes appeared as dye 2 positive cells, i.e. 71% of all CD4^+ T cells (CD4^+ cells), 34% of all CD8^+ T cells (CD8^+ cells), 72% of all B cells (CD19^+ cells) and 15% of all NK cells (CD56^+ cells). […]

[3] = tested on: NHDF; experiment: Imaging human cells labelled with dye (microscopy); format: cell-based; conditions: 0.2 μM dye
Procedure: (§1) The cells were imaged to assess incorporation of the dyes according to the following procedure. Cell+dye 2 samples were prepared following the procedure in Example 4 with the following modifications: the cells were seeded with NHDF (not older than P9), human umbilical cord-derived mesenchymal stem cells (UC-MSCs) or bone marrow-derived MSCs (BM-MSCs); and the dye 2 was used in a final concentration of 0.2 μM. Before imaging, each well was washed with 1× HBSS (−) once. 100-200 μL of 1× HBSS (−) was added to each well prior to imaging to make sure the cells are not dried out. The cells were imaged on a Thermo Fisher Evos M5000 microscope equipped with the Texas Red filter. Routinely utilized conditions are (magnification, light, exposure, gain): 10× Texas Red, 22, 146, 105; 20× Texas Red, 12, 133, 64; 40× Texas Red, 36, 79, 40. Settings were held constant for all images taken on the same plate.

[4] = tested on: human umbilical cord-derived mesenchymal stem cells (UC-MSCs); experiment: Imaging human cells labelled with dye (microscopy); format: cell-based; conditions: 0.2 μM dye
Procedure: as §1

[5] = tested on: bone marrow-derived MSCs (BM-MSCs); experiment: Imaging human cells labelled with dye (microscopy); format: cell-based; conditions: 0.2 μM dye
Procedure: as §1

`CCCCCCCCCCCCCCCCCCN(C)C(=O)c1ccccc1-c1c2ccc(=[N+](CC)CC)cc-2oc2cc(N(CC)CC)ccc12.[Cl-]` [Dye 2, Rhodamine B N-methyloctadecylamide] was tested, and the “FLD area (EV + dye)” value ([1]; 1 hr 37° C., void peak area, 562 nm/583 nm (Ex/Em)) was 2493643, the “Area FLD/Area UV (EV + dye)” value ([1]; higher ratio = greater incorporation) was 4.50 and the “dye 2 positive B cells (CD19+ cells)” value [2] was 72%. For the same molecule, the “dye 2 positive CD4+ T cells” value [2] was 71%, the “dye 2 positive CD8+ T cells” value [2] was 34% and the “dye 2 positive NK cells (CD56+ cells)” value [2] was 15%. The “dye 2 positive monocytes (CD14+ cells)” value [2] was 99%, the “labelling of cells (microscopy, FIG. 3(a))” value [3] was “capable of labelling” and the “labelling of cells (microscopy, FIG. 3(b))” value [4] was “capable of labelling”. The “labelling of cells (microscopy, FIG. 3(c))” value [5] was “capable of labelling”.
